In paper PMC13266999, “Designing Antibiotics with Inherent Resistance to Efflux as a Strategy to Revive Discovery against Multidrug-Resistant Pathogens” (Journal of Medicinal Chemistry, 2026):
Converted amounts (≈) assume the structure as drawn. “And” between values parts separate entries of the source, which are not always exact repeats. Equal values may be shown once. Read-outs that look alike come from different tables or passages of the source. Each block holds one molecule with its values, some of them ahead of it.

Assays:
S. aureus = assay: MIC (microbroth dilution); format: cell-based, Staphylococcus aureus; conditions: for fold difference in MIC, SA-1199B vs SA-1199: NorA-overexpressing vs WT; for MIC: Staphylococcus aureus
Protocol: All bacteria were maintained on tryptic soy agar (TSA), except Streptococcus spp., which were maintained on Columbia agar plates containing 5% horse blood. […] Bacteria were grown to stationary phase in liquid culture overnight, with shaking at 200 rpm, before being back diluted to the relevant starting concentration for each assay below. MICs were measured by the microbroth dilution method. […] Absorbance at OD600 was read on a CLARIOstar spectrophotometer (BMG Labtech) and the MIC was defined as the minimum concentration of compound where no visible growth was detected. […] MICs were also performed in the presence of the outer membrane permeator, polymyxin b nonapeptide (PMBN) following the same MIC method but with the following variation. The 2-fold dilution series of compound was prepared as above, then 50 μL of PMBN at a final concentration of 30 μg/mL was added to relevant wells, while 50 μL/well of blank media was added to the remaining wells. Bacteria were then added at 50 μL/well for a starting concentration as above. […] The MICs were read and defined as above. All animal procedures were performed by the contract research organization Pharmacology Discovery Services Taiwan in accordance with the Guide for the Care and Use of Laboratory Animals. The procedures were approved by the Institutional Ethics Committee of Pharmacology Discovery Services Taiwan, Ltd. (approval no. AB127662), in compliance with animal welfare legislation in Taiwan.

[1] = tested on: NorA overexpressing strain NCTC 13616; assay: Reserpine growth (efflux inhibition) assay; conditions: for AUC of growth curve: biological replicates 1-3
Protocol: Statistical analyses were performed with GraphPad Prism V9.5.0. […] Unpaired t tests were used when comparing two samples in the gyrase assays.

A. baumannii = A. baumannii efflux chequerboard assay; format: cell-based, Acinetobacter baumannii; conditions: for MIC: Acinetobacter baumannii, read-out: MIC alone
Protocol: Checkerboard assays were performed by preparing two separate 2-fold dilution series of compounds in two 96 well plates, one horizontally, one vertically. […] Plates were incubated at 37 C for 20 h and the absorbance (OD600) was read on a CLARIOstar spectrophotometer (BMG Labtech). The fractional inhibitory concentration was calculated as follows: ΣFIC = [(MIC of A in combination)/(MIC of A alone)] + [(MIC of B in combination)/(MIC of B alone)].

[2] = ATCC9144, ATCC 9144, read-out: MIC
[3] = NCTC13277, NCTC 13277, read-out: MIC
[4] = NCTC13616, NCTC 13616, read-out: MIC

Molecule: C[C@H]1COc2c(N3CCN(c4ncccn4)CC3)c(F)cc3c(=O)c(C(=O)O)cn1c23 [Compound 42, (S)-9-Fluoro-3-methyl-7-oxo-10-(4-(pyrimidin-2-yl)piperazin-1-yl)-2,3-dihydro-7H-[1,4]oxazino[2,3,4-ij]quinoline-6-carboxylic acid]
fold difference in MIC, SA-1199B vs SA-1199 (S. aureus): 4 fold
MIC (S. aureus; [2]): 0.06 µg/mL (≈ 0.141 µM)
MIC (S. aureus; [3]): > 32 µg/mL
MIC (S. aureus; [4]): 8 µg/mL (≈ 18.8 µM)
MIC (S. aureus; SA-1199, read-out: MIC): 0.06 µg/mL (≈ 0.141 µM)
MIC (S. aureus; SA-1199B (NorA-overexpressing)): 0.25 µg/mL (≈ 0.588 µM)
AUC of growth curve ([1]; 0.25 MIC + R (reserpine)): 1.819 and 2.376 and 1.866
AUC of growth curve ([1]; 0.25 MIC): 2.249 and 2.537 and 2.169
AUC of growth curve ([1]; 0.5 MIC + R (reserpine)): 1.376 and 1.633 and 1.162
AUC of growth curve ([1]; 0.5 MIC): 1.682 and 1.538 and 1.705

Molecule: C[C@H]1COc2c(N3CCC(Nc4ncccn4)C3)c(F)cc3c(=O)c(C(=O)O)cn1c23 (stereo partly drawn) [Compound 43, (3S)-9-Fluoro-3-methyl-7-oxo-10-(3-(pyrimidin-2-ylamino)pyrrolidin-1-yl)-2,3-dihydro-7H-[1,4]oxazino[2,3,4-ij]quinoline-6-carboxylic acid]
fold difference in MIC, SA-1199B vs SA-1199 (S. aureus): 2 fold
MIC (S. aureus; [2]): 0.125 µg/mL (≈ 0.294 µM)
MIC (S. aureus; [3]): 2 µg/mL (≈ 4.7 µM)
MIC (S. aureus; [4]): 2 µg/mL (≈ 4.7 µM)
MIC (S. aureus; SA-1199, read-out: MIC): 0.016 µg/mL (≈ 0.0376 µM)
MIC (S. aureus; SA-1199B (NorA-overexpressing)): 0.03 µg/mL (≈ 0.0705 µM)
fold potentiation compared to levofloxacin (S. aureus; fluoroquinolone-resistant NCTC 13616 and NCTC 13277): 8 fold
AUC of growth curve ([1]; 0.25 MIC + R (reserpine)): 2.601 and 2.681 and 2.535
AUC of growth curve ([1]; 0.25 MIC): 3.079 and 3.208 and 2.944
AUC of growth curve ([1]; 0.5 MIC + R (reserpine)): 0.9550 and 0.7355 and 0.8940
AUC of growth curve ([1]; 0.5 MIC): 1.061 and 0.9440 and 1.050
efflux liability in reserpine assay ([1]; 0.5x MIC with vs without reserpine): did not demonstrate efflux liability

MIC +50 (0.25x MIC) (A. baumannii; A. baumannii ATCC 17978): 1.88 to 3.76 µg/mL
MIC +50 (0.5x MIC) (A. baumannii; A. baumannii ATCC 17978): 0.014 to 0.55 µg/mL
MIC +50 (0.25x MIC) (A. baumannii; A. baumannii AYE): 56 to 248 µg/mL
MIC +50 (0.5x MIC) (A. baumannii; A. baumannii AYE): 0.375 to 136 µg/mL
MIC (A. baumannii; ATCC17978, A. baumannii ATCC 17978): 4 µg/mL
MIC (A. baumannii; A. baumannii AYE): 256 µg/mL
Molecule: NC[C@H]1O[C@H](O[C@H]2[C@H](O)[C@@H](O[C@H]3O[C@H](CO)[C@@H](O)[C@H](N)[C@H]3O)[C@H](N)C[C@@H]2N)[C@H](N)C[C@@H]1O [Tobramycin]

Molecule: Colistin
MIC +50 (0.25x MIC) (A. baumannii; A. baumannii ATCC 17978): 0.015 to 0.123 µg/mL
MIC +50 (0.5x MIC) (A. baumannii; A. baumannii ATCC 17978): 0.0017 to 0.015 µg/mL
MIC alone (A. baumannii; A. baumannii ATCC 17978): 0.25 µg/mL
MIC +50 (0.25x MIC) (A. baumannii; A. baumannii AYE): 0.015 µg/mL
MIC +50 (0.5x MIC) (A. baumannii; A. baumannii AYE): 0.003 to 0.007 µg/mL
MIC alone (A. baumannii; A. baumannii AYE): 0.25 to 0.5 µg/mL
